From PMC8875489, “Pharmaceutical and Safety Profile Evaluation of Novel Selenocompounds with Noteworthy Anticancer Activity” (Pharmaceutics, 2022)
Read-outs that look alike come from different tables or passages of the source.

Columns and labels:
[1] = PAMPA membrane permeability test (capillary electrophoresis); type: in vitro ADME; details: for Papp at 5 h, 50 µM: 50 μM in PBS pH 7.4, 5 h, room temperature, read-out: In Vitro Permeability
Protocol: The passive transport and membrane absorption of 5 selected selenocompounds (EDA-58, EDA-71, EDA-119, EDA-122, and EDA-A6) were evaluated with the in vitro parallel artificial membrane permeability assay (PAMPA). This PAMPA assay could provide better predictability and membrane permeability correlations compared to the data obtained for human absorption in the Caco-2 cell line. The Precoated PAMPA Plate System Gentest™ (Corning, Bradford, MA, USA) was used to perform the permeability assay for the 5 selected Se compounds. The protocol of the permeability assay was similar to the previously described ones and is detailed in the Supplementary Materials.
Five selenocompounds (EDA-58, EDA-71, EDA-119, EDA-122, and EDA-A6) were evaluated with the PAMPA in vitro assay using the CE technique.
[formula] Scheme 1 Calculation of the in vitro permeability (cm/s). A (filter area) cm^2 = 0.3; VD (donor well volume) mL = 0.3; VA (acceptor well volume) mL = 0.2; t (incubation time) seconds = 18,000; CA(t) (compound concentration in acceptor well at time t); CD(t) (compound concentration in donor well at time t). […]
(§1) 1.3. PAMPA test: membrane permeability evaluation.
(§2) The passive transport and the membrane absorption of 5 selected selenocompounds (EDA-58, EDA-71, EDA-119, EDA-122, EDA-A6) were evaluated in the in vitro Parallel Artificial Membrane Permeability Assay (PAMPA). The protocol of the permeability assay was similar to the ones previously described.
1.3.1. Stock solutions and sample preparation for PAMPA test
Working solutions of the tested compounds at the concentration of the 50 μM in the phosphate saline buffer (PBS, pH 7.4) were prepared from the stocks in the pure dimethyl sulfoxide (DMSO) and stored at -20° C. Moreover, to draw the precise calibration curves for each tested (EDA-58, EDA-71, EDA-119, EDA-122, EDA-A6) and reference com- […]
The Precoated PAMPA Plate System Gentest™ (Corning, Bradford, MA, USA) was used to perform permeability assay for the 5 selected Se-compounds. The essential part of […]
solvents. PAMPA Plate System was brought to room temperature 30 min before use.
The 96-well filter plate precoated with lipids was used as a permeation acceptor, whereas the 96-well receiver plate acted as the permeation donor plate. Therefore, the compound solutions were added to the wells (300 μL/well) of the receiver plate and PBS was added to wells (200 μL/well) of the precoated filter plate.
Then, the filter plate was coupled with the receiver plate and both were incubated at room temperature for five hours without agitation. […] Fi-nally, the permeability coefficients (Pe, [cm/s]) of the tested compounds were estimated using the formula provided by the PAMPA Plate System manufacturer.
1.3.3. Capillary electrophoresis (CE) analytical method […]
were calculated in both the donor and acceptor compartments using the capillary electro-

[2] = tested on: Salmonella Typhimurium TA100 strain; details: for Fold Increase over Baseline / MI (mutagenic index) / B (binomial B value): TA100; for Fold Increase over Baseline: alert ≥ 2.0; for MI (mutagenic index): mutagenic if MI ≥ 2; for B (binomial B value): threshold ≥ 0.99
Protocol: Safety profiles were evaluated using an in vitro microbiological method adapted to the microplate Ames test (384-well microtitration plate), which applies Salmonella enterica serovar Typhimurium bacterial strains (the gold standard in mutagenicity research). The experiment was performed according to a previously described protocol, which is provided in the Supplementary Materials. Briefly, the TA 100 strain (deprived of the ability to synthesize the histidine) was incubated with each tested compound in an exposure medium containing a limited amount of histidine. The reversion events were counted both manually and by means of a microplate reader. Each fold increase bigger than two times the baseline level (≥2.0-fold) was considered to indicate a mutagen alert. The experiments and data analyses were prepared according to the procedure that was previously described by Flückiger-Isler et al.. The assay was performed in triplicate. The positive control selected for the mutagenicity assays was NQNO, which causes genome point mutations; specifically, it promotes G:C → A:T transitions in the Salmonella Typhimurium TA-100 strain and other bacteria such as Vibrio harveyi and Escherichia coli.
In the next step of the studies, the in vitro safety profiles of the tested selenocompounds were evaluated. All compounds were tested with the 384-well plate microfluctuation Ames test. The mutagenic index (MI) was used as the measure of mutagenicity.
1.5. Safety profile evaluation - Ames microplate mutagenicity assay
Safety profile was evaluated by the means of in vitro microbiological methods – adapted to microplate Ames test, which applies Salmonella enterica serovar Typhimurium bacterial strains (the gold standard in mutagenicity research).
1.5.1. Compounds preparation
To evaluate the impact of tested compounds and of references on Salmonella enterica serovar Typhimurium (onwards Salmonella Typhimurium) TA-100 strain growth by means of the Ames test, the compounds or the reference were dissolved in the pure DMSO, to obtain the corresponding 10 mM stock solutions. Working solutions for tested compounds (25 μM and 250 μM concentrations) were prepared before the assay in DMSO.
1.5.2. Microplate Ames mutagenicity assay protocol
Prior to the experiment, Salmonella Typhimurium was cultured overnight (NB-2 liq-uid medium in the presence of 25 μg/mL ampicillin). At the day of the experiment, fresh dilutions of the tested compounds (25 μM and 250 μM), reference compound (methylse-leninic acid) and standard mutagen (4-nitroquinoline-N-oxide at 2.5 μM and 12.5 μM) in DMSO were prepared. The positive control selected for the mutagenicity assays was NQNO, which causes point mutations at the genome. Specifically, it promotes G:C → A:T transitions in Salmonella Typhimurium TA-100 strain and in the other bacteria such as Vib-rio harveyi and Escherichia coli.
The mutagenic potential of the tested derivatives was evaluated by the incubation of the abovementioned bacteria (deprived of the ability to synthesize the histidine) with spe-cific concentrations of the tested compounds (for 90 min in the exposure medium), con-taining a limited amount of histidine (enough to provide approximately 2-3 cell divisions).
The occurrence of reversion events to histidine prototrophy was observed through the bacterial growth in the indicator medium without histidine after 48 h of incubation in temperature of 37° C [45]. The final compound and the mutagenic agent concentrations in each single well of a 384 well plate were 1 μM and 10 μM for the compounds; and 0.1 μM and 0.5 μM for the mutagen. Lastly, both a manual count and a microplate reader were used to obtain the results. The medium control baseline (MCB) was estimated as the mean number of revertants in the medium control plus one standard deviation. Each fold in-crease bigger than two times the baseline level ≥ 2.0 was considered as a mutagen alert.

[3] = Experimental aqueous solubility (UV spectrophotometry of saturated solutions); type: physicochemical; details: water (saturated solution), water, thermodynamic from solid
Protocol: Experimental aqueous solubility was determined following a previously described procedure. Briefly, calibration curves were obtained by means of UV spectrometry for each compound, and their respective linear equations were obtained. Afterwards, saturated solutions of each compound were obtained, and they were diluted until the concentration fell within the calibration range, thus enabling the correct concentration interpolation. […] A detailed description of this process can be found in Supplementary Materials.
The aqueous solubility of the tested organic Se compounds was experimentally determined following a previously described procedure. The chosen assay used UV spectrophotometry to estimate the concentration of the saturated solution with known dilutions of the tested compound at room temperature (20° C) after 24 h. The concentrations of the solutions were used to obtain the interpolation of the measured UV absorbance of the saturated solution dilution from the calibration curve drawn using solutions previously prepared in methanol/water mixtures. […]
1.2. Determination of the aqueous solubility
1.2.1. Preparation of the saturated solutions of tested compounds
The saturated solutions (2 mL) of the tested Se-compounds in water were prepared at H2O boiling point in small glass vials. Later, vials were covered to avoid evaporation and all solutions were left 1 day at 20° C, after when every solution was filtered. Finally, the concentration of the Se-compounds was determined through UV spectrophotometric measurements. To estimate correctly the concentration, calibration curves with known concentrations were prepared, and the saturated solutions were diluted till reaching a point within the range of the respective calibration curve.
1.2.2. Preparation of the calibration curve stock solutions for UV spectrometry The stock solutions of 10 selenoesters (EDA-26, EDA-71, EDA-73, EDA-74, EDA-93, […]
were prepared in methanol (99% purity) at a 1 g/L concentration. Additionally, calibration solutions in the range from 0.0005 to 0.02 [g/L] were prepared for each Se-compound and their UV absorbance was determined to draw the corresponding calibration curve.
1.2.3. Sample preparation of saturated filtrates for UV spectrometry
The 100-fold diluted solutions of the saturated filtrates of the Se-compounds were prepared in the anhydrous methanol (99% purity), by addition of 70 μL of the correspond-ing methanol stock solution over anhydrous methanol till filling a 7 mL final volume. Af-terwards, the absorption of abovementioned solutions was determined. Finally, the solu-tions were diluted with 99% methanol from 1 to 160 times, in function of the compound.
The aim of this procedure was to determine the concentration of the Se-compounds […]
through the controlled dilution of the solution with unknown concentration till its UV absorbance fell within the range of the calibration solutions.
1.2.4. Solubility estimation
For each compound, the calibration curve was calculated through the UV absorbance measurements and the linear equation of the linear part of the curve was calculated. The absorbance of the dilution was then interpolated in this range, finding its concentration.
To determine the solubility, this concentration was multiplied by the dilution factor, which was specific for each derivative. This action enabled the estimation of the in vitro solubility of the tested derivatives in saturated solutions. All the solubility values were the average value obtained from the 3 independent measurements.
as §1, §2
1.3.1. Stock solutions and sample preparation for PAMPA test […]

[4] = design: method as in PMID 28245633; details: known selenocompounds; cited from earlier work

SMILES	Fold Increase over Baseline ([2]; 1 µM)	MI (mutagenic index) ([2]; 1 µM)	B (binomial B value) ([2]; 1 µM)	Fold Increase over Baseline ([2]; 10 µM)	MI (mutagenic index) ([2]; 10 µM)	B (binomial B value) ([2]; 10 µM)	permeability [4] [%]	further results
Cn1c(=O)c2c(ncn2C)n(C)c1=O [Caffeine, caffeine, reference compound]	–	–	–	–	–	–	–	Papp at 5 h, 50 µM [1]: 3.42 ×10⁻⁶ cm/s; % Perm. (percentage that crossed from the donor well to the acceptor well) ([1]; 5 h): 6.05%
COc1cccc2c1C(=O)c1c(O)c3c(c(O)c1C2=O)C[C@@](O)(C(=O)CO)C[C@@H]3O[C@H]1C[C@H](N)[C@H](O)[C@H](C)O1 [DOXO, doxorubicin, reference compound]	1.31	1.64	1.00	0.77	0.95	0.46	–	–
COC(=O)C[Se]C(=O)c1ccccc1Cl [EDA-46, methyl 2-((2-chlorobenzoyl)selanyl)acetate]	1.65	1.56	1.00	1.00	0.94	0.88	–	–
COC(=O)C[Se]C(=O)c1ccccc1 [EDA-53, methyl 2-(benzoylselanyl)acetate]	1.10	1.82	1.00	1.04	1.72	0.98	–	mutagenicity conclusion in Ames test ([2]; TA100, 1 and 10 µM): non-mutagenic
COC(=O)C[Se]C(=O)Cc1ccccc1 [EDA-56, methyl 2-((2-phenylacetyl)selanyl)acetate]	0.93	1.46	0.88	0.90	0.85	0.75	–	–
NC(=O)C[Se]C(=O)c1ccccc1 [EDA-117, Se-carbamoylmethyl benzoselenoate]	0.49	0.66	0.36	0.42	0.57	0.18	–	solubility at 24 h ([3]; 20 °C, logSm calculated based on solubility Sm (mol/L), read-out: Experimental Aqueous Solubility logSm (converted)): 4.27 mM; solubility at 24 h ([3]; room temperature (20° C), after 24 h, average of 3, read-out: Experimental Aqueous Solubility): 1030 µg/mL
N[C@@H](CC[Se]CC[C@H](N)C(=O)O)C(=O)O [L-selenohomolanthionine]	–	–	–	–	–	–	2.5	–
C[Se](=O)O [MetSeAc, methylseleninic acid, reference compound]	0.75	0.90	0.37	0.74	0.96	0.47	–	–
CCn1cc(C(=O)O)c(=O)c2cc(F)c(N3CCNCC3)cc21 [Norfloxacin, norfloxacin, reference compound]	–	–	–	–	–	–	–	Papp at 5 h, 50 µM [1]: 0.0949 ×10⁻⁶ cm/s
C[Se]C1O[C@H](CO)[C@H](O)[C@H](O)[C@H]1NC(C)=O (some centres unmarked) [Se-methylseleno-N-acetylgalactosamine]	–	–	–	–	–	–	2.9	–
N#C[SeH] [anionic selenocyanate, selenocyanate]	–	–	–	–	–	–	3.8	–
C[Se+](C)C [cationic trimethylselenonium, trimethylselenonium]	–	–	–	–	–	–	3.0	–
C[Se]C[C@H](N)C(=O)O [methylselenocysteine]	–	–	–	–	–	–	17.2	–
O=[Se](O)O [selenite]	–	–	–	–	–	–	3.4	–
N[C@@H](C[Se][Se]C[C@H](N)C(=O)O)C(=O)O [selenocystine]	–	–	–	–	–	–	3.1	–
C[Se]CC[C@H](N)C(=O)O [selenomethionine]	–	–	–	–	–	–	12.4	–
